Assay results as given in US11807835B2, “Detergent compositions containing a stabilized enzyme by phosphonates” (ECOLAB USA INC., priority 2016, dated 2023).

Tests used:
[1] = test system: amylase; experiment: Amylase activity retention in detergent use solution (4000 ppm, 5 GPG water; ethylidene substrate EPS, HEPES buffer pH 8.0); type: biochemical
Experimental: (§1) The enzyme activities in the detergents with different phosphonate levels were tested at 4000 ppm in 5 grains per gallon (GPG) water at 120° F. with various time points collected up to 4 hours, after a use solution was generated from the detergent composition. During the tests, the samples at different time points were collected and immediately frozen in an acetone/dry ice bath and stored in −80° C. before the activity of the enzyme was evaluated. For the use of such an assay, t=0 min was the reference point for 100% enzyme activity.
(§2) Assays of enzyme activity in formulations (% retention) were conducted to simulate a presoak condition in a beaker using the chemistry, temperature, and pH conditions relevant to manual warewash or presoak applications. Enzyme activity is an indicator of the stability of the enzyme in the detergent, specifically in an aqueous use solution within a sump (which is under conditions of high pH, temperature and dilution).
Enzyme activity under presoak or manual warewash conditions was traced quantitatively using a standard protease assay. Samples were prepared under bench top conditions, whereby the use solution from a detergent composition or detergent was obtained and maintained at a presoak or manual warewash temperature in a stirring water bath. After the time course for assessing enzyme stability is initiated, aliquots were taken at various time points and flash-frozen. A time=0 sample was prepared for each series by dissolving the detergent formulation at room temperature, mixing thoroughly, and flash freezing. Samples were thawed and diluted as necessary in an assay buffer usually for use in the protease assay. A glycine buffer at pH 9.0 is used here. The assay monitored the direct reaction of the protease on a small, commercially available peptidyl substrate, with liberation of the product providing correlation to the active enzyme content. The product was detected using a plate reader with an appreciable dynamic range (upper absorbance limit of the instrument >3.5). Enzyme activity levels were assessed relative to a calibration curve with average values for replicate tests used to map protease stability under presoak or manual warewash use conditions. Enzyme retention at each time point was calculated as the % enzyme activity relative to the time=0 sample.
The analysis by lipase and amylase assay was conducted similarly, except with a different substrate and buffers. For lipase activity, the substrate is p-nitrophenyl valerate, and for amylase, the substrate is an ethylidene substrate (EPS). The buffer used in lipase assay is TRIS (Tris(hydroxymethyl)aminomethane) buffer at pH 8.0, and in amylase assay HEPES (4-(2-hydroxyethyl)-1-piperazineethanesulfonic acid) buffer at pH 8.0.

[2] = test system: enzyme (protease, amylase, lipase); experiment: Overall effects of phosphonates on enzyme activity (Table 3); type: biochemical; details: overall effect of the phosphonate on enzyme activity in the detergent use solution
Experimental: as §1, §2
The relative enzyme activities in a use solution of the tested detergent compositions containing a different phosphonate at different concentrations over a period time are listed in Table 4A-Table 4E, Table 5A-Table 5E, and Table 6A-Table 6F.

[3] = base formula, phosphonate 0.3 wt-%, use solution at 120° F., time 0 min
[4] = base formula, phosphonate 0.3 wt-%, use solution at 120° F., time 5 min
[5] = base formula, phosphonate 0.3 wt-%, use solution at 120° F., time 10 min
[6] = base formula, phosphonate 0.3 wt-%, use solution at 120° F., time 20 min
[7] = base formula, phosphonate 0.3 wt-%, use solution at 120° F., time 40 min
[8] = base formula, phosphonate 0.3 wt-%, use solution at 120° F., time 60 min
[9] = base formula, phosphonate 0.3 wt-%, use solution at 120° F., time 90 min
[10] = base formula, phosphonate 0.3 wt-%, use solution at 120° F., time 120 min
[11] = base formula, phosphonate 0.3 wt-%, use solution at 120° F., time 150 min
[12] = base formula, phosphonate 0.3 wt-%, use solution at 120° F., time 180 min
[13] = base formula, phosphonate 0.3 wt-%, use solution at 120° F., time 210 min
[14] = base formula, phosphonate 0.3 wt-%, use solution at 120° F., time 240 min
[15] = base formula, phosphonate 0.6 wt-%, use solution at 120º F., time 0 min
[16] = base formula, phosphonate 0.6 wt-%, use solution at 120º F., time 5 min
[17] = base formula, phosphonate 0.6 wt-%, use solution at 120º F., time 10 min
[18] = base formula, phosphonate 0.6 wt-%, use solution at 120º F., time 20 min
[19] = base formula, phosphonate 0.6 wt-%, use solution at 120º F., time 40 min
[20] = base formula, phosphonate 0.6 wt-%, use solution at 120º F., time 60 min
[21] = base formula, phosphonate 0.6 wt-%, use solution at 120º F., time 90 min
[22] = base formula, phosphonate 0.6 wt-%, use solution at 120º F., time 120 min
[23] = base formula, phosphonate 0.6 wt-%, use solution at 120º F., time 150 min
[24] = base formula, phosphonate 0.6 wt-%, use solution at 120º F., time 180 min
[25] = base formula, phosphonate 0.6 wt-%, use solution at 120º F., time 210 min
[26] = base formula, phosphonate 0.6 wt-%, use solution at 120º F., time 240 min
[27] = base formula, phosphonate at 0.1% elemental phosphorus level, use solution at 120º F., time 0 min
[28] = base formula, phosphonate at 0.1% elemental phosphorus level, use solution at 120º F., time 5 min
[29] = base formula, phosphonate at 0.1% elemental phosphorus level, use solution at 120º F., time 10 min
[30] = base formula, phosphonate at 0.1% elemental phosphorus level, use solution at 120º F., time 20 min
[31] = base formula, phosphonate at 0.1% elemental phosphorus level, use solution at 120º F., time 40 min
[32] = base formula, phosphonate at 0.1% elemental phosphorus level, use solution at 120º F., time 60 min
[33] = base formula, phosphonate at 0.1% elemental phosphorus level, use solution at 120º F., time 90 min
[34] = base formula, phosphonate at 0.1% elemental phosphorus level, use solution at 120º F., time 120 min
[35] = base formula, phosphonate at 0.1% elemental phosphorus level, use solution at 120º F., time 150 min
[36] = base formula, phosphonate at 0.1% elemental phosphorus level, use solution at 120º F., time 180 min
[37] = base formula, phosphonate at 0.1% elemental phosphorus level, use solution at 120º F., time 210 min
[38] = base formula, phosphonate at 0.1% elemental phosphorus level, use solution at 120º F., time 240 min

`NCP(=O)(O)O` [AMPA, Aminomethyl phosphonic acid] was tested, and the “Relative Amylase Enzyme Activity” value [1, 3] was 82.13%, the “Relative Amylase Enzyme Activity” value [1, 4] was 100.00% and the “Relative Amylase Enzyme Activity” value [1, 5] was 95.55%. For the same molecule, the “Relative Amylase Enzyme Activity” value [1, 6] was 101.29%, the “Relative Amylase Enzyme Activity” value [1, 7] was 80.17% and the “Relative Amylase Enzyme Activity” value [1, 8] was 80.10%. For the same molecule, the “Relative Amylase Enzyme Activity” value [1, 9] was 87.43%, the “Relative Amylase Enzyme Activity” value [1, 10] was 92.65% and the “Relative Amylase Enzyme Activity” value [1, 11] was 93.49%. The “Relative Amylase Enzyme Activity” value [1, 12] was 102.37%, the “Relative Amylase Enzyme Activity” value [1, 13] was 103.78% and the “Relative Amylase Enzyme Activity” value [1, 14] was 102.93%. The “Relative Amylase Enzyme Activity” value [1, 15] was 100.00%, the “Relative Amylase Enzyme Activity” value [1, 16] was 91.80% and the “Relative Amylase Enzyme Activity” value [1, 17] was 92.54%. The “Relative Amylase Enzyme Activity” value [1, 18] was 85.05%, the “Relative Amylase Enzyme Activity” value [1, 19] was 94.06% and the “Relative Amylase Enzyme Activity” value [1, 20] was 86.14%. For the same molecule, the “Relative Amylase Enzyme Activity” value [1, 21] was 90.32%, the “Relative Amylase Enzyme Activity” value [1, 22] was 93.67% and the “Relative Amylase Enzyme Activity” value [1, 23] was 92.05%. For the same molecule, the “Relative Amylase Enzyme Activity” value [1, 24] was 81.43%, the “Relative Amylase Enzyme Activity” value [1, 25] was 94.06% and the “Relative Amylase Enzyme Activity” value [1, 26] was 81.87%. For the same molecule, the “Relative Amylase Enzyme Activity” value [1, 27] was 97.43%, the “Relative Amylase Enzyme Activity” value [1, 28] was 100.00% and the “Relative Amylase Enzyme Activity” value [1, 29] was 102.34%. The “Relative Amylase Enzyme Activity” value [1, 30] was 105.43%, the “Relative Amylase Enzyme Activity” value [1, 31] was 92.18% and the “Relative Amylase Enzyme Activity” value [1, 32] was 92.23%. For the same molecule, the “Relative Amylase Enzyme Activity” value [1, 33] was 96.88%, the “Relative Amylase Enzyme Activity” value [1, 34] was 92.96% and the “Relative Amylase Enzyme Activity” value [1, 35] was 103.38%. For the same molecule, the “Relative Amylase Enzyme Activity” value [1, 36] was 102.05%, the “Relative Amylase Enzyme Activity” value [1, 37] was 91.32% and the “Relative Amylase Enzyme Activity” value [1, 38] was 99.25%. The “Stability (effects on enzyme activity)” value [2] was “Yes”.

In the case of `O=P(O)(O)CN(CP(=O)(O)O)CP(=O)(O)O` [ATMP, Aminotri (methylene phosphonic acid)], the “Relative Amylase Enzyme Activity” value ([1]; All Ash formula, phosphonate 0.3 wt-%, use solution at 120° F., time 0 min) was 98.49%, the “Relative Amylase Enzyme Activity” value ([1]; All Ash formula, phosphonate 0.3 wt-%, use solution at 120° F., time 5 min) was 100.00% and the “Relative Amylase Enzyme Activity” value ([1]; All Ash formula, phosphonate 0.3 wt-%, use solution at 120° F., time 10 min) was 98.40%. The “Relative Amylase Enzyme Activity” value ([1]; All Ash formula, phosphonate 0.3 wt-%, use solution at 120° F., time 20 min) was 97.90%, the “Relative Amylase Enzyme Activity” value ([1]; All Ash formula, phosphonate 0.3 wt-%, use solution at 120° F., time 40 min) was 91.03% and the “Relative Amylase Enzyme Activity” value ([1]; All Ash formula, phosphonate 0.3 wt-%, use solution at 120° F., time 60 min) was 86.91%. For the same molecule, the “Relative Amylase Enzyme Activity” value ([1]; All Ash formula, phosphonate 0.3 wt-%, use solution at 120° F., time 90 min) was 87.68%, the “Relative Amylase Enzyme Activity” value ([1]; All Ash formula, phosphonate 0.3 wt-%, use solution at 120° F., time 120 min) was 80.93% and the “Relative Amylase Enzyme Activity” value ([1]; All Ash formula, phosphonate 0.3 wt-%, use solution at 120° F., time 150 min) was 83.80%. The “Relative Amylase Enzyme Activity” value ([1]; All Ash formula, phosphonate 0.3 wt-%, use solution at 120° F., time 180 min) was 80.91%, the “Relative Amylase Enzyme Activity” value ([1]; All Ash formula, phosphonate 0.3 wt-%, use solution at 120° F., time 210 min) was 84.34% and the “Relative Amylase Enzyme Activity” value ([1]; All Ash formula, phosphonate 0.3 wt-%, use solution at 120° F., time 240 min) was 83.21%. For the same molecule, the “amylase stability in all ash formula” value ([1]; all ash formula, versus same composition with PBTC or HEDP without amine(s), FIG. 4D) was “more stable”, the “Relative Amylase Enzyme Activity” value [1, 3] was 100.00% and the “Relative Amylase Enzyme Activity” value [1, 4] was 89.47%. For the same molecule, the “Relative Amylase Enzyme Activity” value [1, 5] was 82.94%, the “Relative Amylase Enzyme Activity” value [1, 6] was 79.67% and the “Relative Amylase Enzyme Activity” value [1, 7] was 90.79%. The “Relative Amylase Enzyme Activity” value [1, 8] was 89.94%, the “Relative Amylase Enzyme Activity” value [1, 9] was 94.47% and the “Relative Amylase Enzyme Activity” value [1, 10] was 95.08%. The “Relative Amylase Enzyme Activity” value [1, 11] was 94.00%, the “Relative Amylase Enzyme Activity” value [1, 12] was 90.87% and the “Relative Amylase Enzyme Activity” value [1, 13] was 94.61%. For the same molecule, the “Relative Amylase Enzyme Activity” value [1, 14] was 96.54%, the “Relative Amylase Enzyme Activity” value [1, 15] was 100.00% and the “Relative Amylase Enzyme Activity” value [1, 16] was 87.10%. The “Relative Amylase Enzyme Activity” value [1, 17] was 92.19%, the “Relative Amylase Enzyme Activity” value [1, 18] was 80.12% and the “Relative Amylase Enzyme Activity” value [1, 19] was 77.64%. The “Relative Amylase Enzyme Activity” value [1, 20] was 91.13%, the “Relative Amylase Enzyme Activity” value [1, 21] was 92.19% and the “Relative Amylase Enzyme Activity” value [1, 22] was 93.02%. For the same molecule, the “Relative Amylase Enzyme Activity” value [1, 23] was 101.54%, the “Relative Amylase Enzyme Activity” value [1, 24] was 80.83% and the “Relative Amylase Enzyme Activity” value [1, 25] was 92.78%. For the same molecule, the “Relative Amylase Enzyme Activity” value [1, 26] was 86.75%, the “Relative Amylase Enzyme Activity” value [1, 27] was 82.19% and the “Relative Amylase Enzyme Activity” value [1, 28] was 100.00%. For the same molecule, the “Relative Amylase Enzyme Activity” value [1, 29] was 107.32%, the “Relative Amylase Enzyme Activity” value [1, 30] was 106.35% and the “Relative Amylase Enzyme Activity” value [1, 31] was 100.35%. The “Relative Amylase Enzyme Activity” value [1, 32] was 106.09%, the “Relative Amylase Enzyme Activity” value [1, 33] was 101.79% and the “Relative Amylase Enzyme Activity” value [1, 34] was 104.38%. The “Relative Amylase Enzyme Activity” value [1, 35] was 101.75%, the “Relative Amylase Enzyme Activity” value [1, 36] was 103.89% and the “Relative Amylase Enzyme Activity” value [1, 37] was 100.38%. For the same molecule, the “Relative Amylase Enzyme Activity” value [1, 38] was 107.10% and the “Stability (effects on enzyme activity)” value [2] was “Yes”.
